Experimental data as given in patent US8268863B2 (priority 2007, dated 2012).

Legend:
human mu opioid receptor [1] = molecular target: T1, human mu opioid receptor (Homo sapiens, UniProt P35372); assay: Human mu GTP-Eu nucleotide exchange assay (agonist mediated activation); type: biochemical; settings: bound GTP-Eu relative to DAMGO (IA=100), CHO-K1 membranes expressing human mu opioid receptor; read-out: intrinsic activity (IA)
T1 construct: host or cells: CHO-K1

human mu opioid receptor [2] = molecular target: T1, human mu opioid receptor; assay: Radioligand binding assay, human mu opioid receptor; settings: [3H]-Diprenorphine displacement, membranes of CHO-K1 cells; read-out: pKi at the human mu opioid receptor (converted)

T1 sequence (P35372 whole entry): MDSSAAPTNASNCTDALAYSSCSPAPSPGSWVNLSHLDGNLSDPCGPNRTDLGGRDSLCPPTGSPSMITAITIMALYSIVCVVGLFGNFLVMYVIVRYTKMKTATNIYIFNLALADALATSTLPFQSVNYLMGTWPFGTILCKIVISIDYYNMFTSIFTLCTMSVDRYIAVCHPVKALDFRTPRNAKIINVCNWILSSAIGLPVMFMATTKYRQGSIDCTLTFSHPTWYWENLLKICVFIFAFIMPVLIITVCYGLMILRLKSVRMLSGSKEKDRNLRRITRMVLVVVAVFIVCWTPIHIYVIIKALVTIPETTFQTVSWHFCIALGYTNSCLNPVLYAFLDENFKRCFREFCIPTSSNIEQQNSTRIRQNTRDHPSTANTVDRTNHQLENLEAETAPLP

CS(=O)(=O)NC(CCN1[C@@H]2CC[C@H]1C[C@@H](c1cccc(C(N)=O)c1)C2)c1ccccc1 (some centres unmarked) [Example 104]
Emax (human mu opioid receptor [1]): ≥ 30%

O=C(NC(CCc1ccccc1)CN1[C@@H]2CC[C@H]1C[C@@H](c1cccc(O)c1)C2)c1ccccc1 (some centres unmarked) [Example 76]
Emax (human mu opioid receptor [1]): ≥ 30%

NC(=O)CCC(=O)NC(CC1CCCCC1)CN1[C@@H]2CC[C@H]1C[C@@H](c1cccc(O)c1)C2 (stereo partly drawn) [Example 3, N-{1-cyclohexylmethyl-2-[3-endo-(3-hydroxy-phenyl)-8-azabicyclo[3.2.1]oct-8-yl]ethyl}succinamide]
Ki (human mu opioid receptor [2]): 0.126 nM | Emax (human mu opioid receptor [1]): 3%

O=C(NC(CC1CCCCC1)CN1[C@@H]2CC[C@H]1C[C@@H](c1cccc(O)c1)C2)C1CCCCC1 (stereo partly drawn) [Example 1, cyclohexanecarboxylic acid {1-cyclohexylmethyl-2-[3-endo-(3-hydroxyphenyl)-8-azabicyclo[3.2.1]oct-8-yl]-ethyl}amide]
Ki (human mu opioid receptor [2]): 0.0631 nM | Emax (human mu opioid receptor [1]): -9%

O=C(NCC1CCCCC1)NC(CC1CCCCC1)CN1[C@@H]2CC[C@H]1C[C@@H](c1cccc(O)c1)C2 (stereo partly drawn) [Example 4, 1-cyclohexylmethyl-3-{1-cyclohexylmethyl-2-[3-endo-(3-hydroxyphenyl)-8-azabicyclo[3.2.1]oct-8-yl]ethyl}urea]
Ki (human mu opioid receptor [2]): 0.1 nM | Emax (human mu opioid receptor [1]): -3%

Cc1ccc(S(=O)(=O)NC(CC2CCCCC2)CN2[C@@H]3CC[C@H]2C[C@@H](c2cccc(O)c2)C3)cc1 (stereo partly drawn) [Example 5, N-{1-cyclohexylmethyl-2-[3-endo-(3-hydroxy-phenyl)-8-azabicyclo[3.2.1]oct-8-yl]ethyl}-4-methyl-benzenesulfonamide]
Ki (human mu opioid receptor [2]): 0.794 nM | Emax (human mu opioid receptor [1]): 2%

O=C(CO)NC(CC1CCCCC1)CN1[C@@H]2CC[C@H]1C[C@@H](c1cccc(O)c1)C2 (stereo partly drawn) [Example 2, N-{1-cyclohexylmethyl-2-[3-endo-(3-hydroxy-phenyl)-8-azabicyclo[3.2.1]oct-8-yl]ethyl}-2-hydroxyacetamide]
Ki (human mu opioid receptor [2]): 0.0631 nM | Emax (human mu opioid receptor [1]): 24%

CC(C)C[C@H](NC(=O)C(Cc1ccccc1)CN1[C@@H]2CC[C@H]1C[C@@H](c1cccc(C(N)=O)c1)C2)C(N)=O (mixture of isomers) [Example 6, 3-endo-{8-[(S)-2-(S)-1-carbamoyl-3-methyl-butylcarbamoyl)-3-phenylpropyl]-8-azabicyclo[3.2.1]oct-3-yl}benzamide and 3-endo-{8-[(R)-2-((S)-1-carbamoyl-3-methylbutylcarbamoyl)-3-phenyl-propyl]-8-azabicyclo[3.2.1]oct-3-yl}benzamide]
Ki (human mu opioid receptor [2]): 0.0631 nM | Emax (human mu opioid receptor [1]): -7%
